Here are results for 7 compounds from US4115453A (Miles Laboratories, Inc., priority 1977, dated 1978).

One assay relates to blood pressure. Briefly: Test D: Decrease in Normal Feline Blood Pressure and Heart Rate (anesthetized cat). Type of assay: in vivo. The conditions noted are these: intravenous, 0.01 to 10.0 mcg/kg, judged only on hypotension. The procedure: The acute effects of test compounds on blood pressure and heart rate were determined in cats of either sex anesthetized with a mixture of pentobarbital sodium (35 mg/kg, i.v.) and barbital sodium (100 mg/kg, i.v.). Cannulas were placed in the trachea to allow adequate spontaneous ventilation, in a femoral artery for blood pressure recording with a strain gage transducer, and in a saphenous vein for drug administration. Heart rate was recorded by means of a cardiotachometer driven by the R wave of the electrocardiogram. After a period of 10 minutes of stable recordings of blood pressure and heart rate, the test compound was administered intravenously at doses increasing from 0.01 to 10.0 mcg/kg, spaced one log and injected at 10 minutes intervals. All doses were injected in a volume of 0.1 ml/kg. Modifications of blood pressure and heart rate induced by the test compound were expressed both in absolute units (mmHg and beats/minutes) and as percent of values recorded immediately before administration of each dose. Biphasic responses were tabulated in the order in which they occur. The direction of the observed changes was also noted (+ for increases and - for decreases).
Activity of compounds in this test was judged only on the basis of the degree of hypotension observed. Thus, the ED50 mmHg (dose decreasing blood pressure by 50 mmHg) was calculated graphically and the compound scored according to the following scale: […]

The subject of the next assay is femoral blood flow. Briefly: Test C: Increase in Canidae Femoral Blood Flow. Conditions: anesthetized dog, intraarterial, 0.001 to 10 mcg. Type of assay: in vivo. As to the method: The peripheral vasodilator or constrictor effects of test compounds were determined in mongrel dogs of either sex, weighing between 10 and 20 kg anesthestized intravenously with 35 mg/kg of sodium pentobarbital. An external iliac artery was dissected immediately above the femoral arch for a length of approximately 5 cm and a previously calibrated, non-connulating electromagnetic flowmeter sensor with a lumen between 2.5 and 3.5 mm was placed snugly around the vessel. Cannulas were placed in a branch of the artery arising distally to the location of the flowmeter sensor for intraarterial drug administrations, in the contralateral femoral artery for systemic blood pressure recordings and in the trachea for artificial respiration with room air. Femoral blood flow and systemic blood pressure were continuously recorded with an electromagnetic flowmeter and pressure tranducer, respectively.
After an adequate control period, test compounds were injected intraarterially at one log-spaced doses ranging from 0.001 to 10 mcg., in a volume of 0.5 ml and at 5 to 10 minute intervals. Maximum changes in bloodflow, as well as any variations in blood pressure, were tabulated for each dose in absolute values (ml/min. and mmHg). The calculations were made taking as control values those existing immediately before administration of each dose. The direction of the observed change (plus for increase and minus for decrease) was also noted. The dose changing bloodflow by 100 ml/min (ED100 ml/min) was calculated graphically and was used for scoring activity as follows: […]

The next assay deals with gastric secretion. Kind of assay: Test B: Inhibition of Rodent Gastric Secretion (pylorus-ligated rat). Type of assay: in vivo. The conditions noted are these: subcutaneous, 2 x 1.5 mg/kg (total 3.0 mg/kg), 4 hours after pyloric ligation. As to the method: A procedure based on that described by Lipmann (J. Pharm. Pharmacol., 21:335 [ 1968]) was used to assess the influence of test compounds on gastric secretion. Rats of one sex weighing 150 to 200 g were randomly divided into groups of six animals each and fasted for 48 hours previously to the experiments, water being available adlibitum. The animals were anesthetized with ether, the abdomen was opened through a midline incision and the pylorus was ligated. Test compounds were diluted from stock solution so as to administer a dose of 1.5 mg/kg in a volume equivalent to 1 ml/kg. Subcutaneous injections were applied immediately after surgery and again 2 hours later, so that a total dose of 3.0 mg/kg was administered. Dilutions were made with phosphate buffer (pH 7.38) as recommended by Lee et al. (Prostaglandins 3:29 [ 1973]), in order to insure adequate stability of drugs at the subcutaneous depot. Each compound was tested in one group of rats; an additional control group received only the vehicle.
Four hours after pyloric ligation the animals were killed with ether, the cardias ligated and the stomachs removed. The volume of gastric secretion was measured and the contents centrifuged at 5000 rpm for 10 minutes. Total acid in the supernatant was titrated against a 0.1 N sodium hydroxide solution and the amount expressed in mEq.
Volume and total acid values of the treated group were compared with those of the controls by the "T" test. Antisecretory activity was scored according to the following scale: […]

The test system of assay [1] is human platelet aggregation. Briefly: Test A: Inhibition of Human Platelet Aggregation. Format: cell-based. The conditions noted are these: human platelet rich plasma, in vitro, collagen-induced, 37° C, 15 minutes. The procedure: The ability of test compounds to inhibit platelet aggreagation was determined by a modification of the turbidometric technique of Born (Nature, 194: 927 [1962]). Blood was collected from human volunteer who had not ingested aspirin or aspirin-containing products within the preceding two weeks in heparinized containers and was allowed to settle for one (1) hour. The platelet rich plasma (prp) supernates were collected and cooled. Siliconized glassware was used throughout.
In a representative assay 1.9 ml of PRP and 0.2 ml of test compound at the appropriate concentrations (0.001 to 100 mcgm), or 0.2 ml of distilled water (control procedure) were placed in sample cuvettes. The cuvettes were placed in a 37° C incubation block for 15 minutes, and then in a spectrophotometer linked to a strip chart recorder. After 30-60 seconds, 0.2 ml of a solution, prepared by diluting a calf-skin collagen solution 1:9 with Tyrodes' Solution, was added to each cuvette. Platelet aggregation was evidenced by a decrease in optical density.
An ED50 value was then determined graphically.

`COC(=O)CCCCCC[C@H]1C(=O)C[C@@H](O)[C@@H]1/C=C/[C@@H](O)CCCCC1CCC2CCC1C2` (stereo partly drawn) [TR-4117, methyl 7-{3R-hydroxy-5-oxo-2R-[3S-hydoxy-7-(bicyclo[3.2.1]oct-2-yl)-1E-heptenyl]cyclopent-1R-yl}heptanoate]: the “Activity Value Test D (ED50 mmHg, dose decreasing blood pressure by 50 mmHg)” value with blood pressure is 0 (>10.0). Further, the “Activity Value Test C (ED100 ml/min, dose changing bloodflow by 100 ml/min)” value (shortened to “Activity Value Test C”) in the assay with femoral blood flow was 0 (>10.0). Further, in the assay with gastric secretion, the “Activity Value Test B (% decrease in acidity)” value is listed as 0 (<26). Also, the “Activity Value Test A (ED50, inhibition of platelet aggregation)” value in assay [1] is 1 (>1.0).
In the case of `COC(=O)CCCCCC[C@H]1C(=O)C=C[C@@H]1/C=C/[C@@H](O)CCCCC1CCC2CCC1C2` (stereo partly drawn) [TR-4118, methyl 7-{5-oxo-2R-[3S-hydroxy-7-(bicyclo[3.2.1]oct-2-yl)-1E-heptenyl]cyclopent-3-en-1R-yl}heptanoate], the “Activity Value Test D (ED50 mmHg, dose decreasing blood pressure by 50 mmHg)” value with blood pressure was 0 (>10.0). Moreover, in the assay with femoral blood flow, the “Activity Value Test C” value was 0 (>10.0). In addition, in the assay on gastric secretion, the “Activity Value Test B (% decrease in acidity)” value is listed as 0 (<26). For the same compound, in assay [1], the “Activity Value Test A (ED50, inhibition of platelet aggregation)” value is reported as 1 (>1.0).
In the case of `O=C(O)CCC/C=C\C[C@H]1C(=O)CC[C@@H]1/C=C/[C@@H](O)C1CC2CCC2C1` (mixture of isomers) [TR-4102, dl-7-{5-oxo-2R-[8 3S-hydroxy-3-(bicyclo[3.2.0]hept-3-yl)-1E-propenyl]cyclopent-1R-yl}hept-5Z-enoic acid], the “Activity Value Test D (ED50 mmHg, dose decreasing blood pressure by 50 mmHg)” value in the assay on blood pressure is listed as 0 (>10.0). Moreover, the “Activity Value Test C” value with femoral blood flow is 2 (0.11 - 1.0). In addition, in the assay on gastric secretion, the “Activity Value Test B (% decrease in acidity)” value is reported as 4 (76-100). In addition, the “Activity Value Test A (ED50, inhibition of platelet aggregation)” value in assay [1] is 1 (>1.0).
Take `O=C(O)CCCCCC[C@H]1C(=O)CC[C@@H]1/C=C/[C@@H](O)C1CC2CCC2C1` (mixture of isomers) [TR-4097, dl-7-{5-oxo-2R-[3S-hydroxy-3-(bicyclo[3.2.0]hept-3-yl)-1E-propenyl]cyclopent-1R-yl}heptanoic acid]: the “Activity Value Test D (ED50 mmHg, dose decreasing blood pressure by 50 mmHg)” value in the assay on blood pressure was 0 (>10.0). Further, in the assay on femoral blood flow, the “Activity Value Test C” value is 1 (1.01 - 10.0). Further, in the assay with gastric secretion, the “Activity Value Test B (% decrease in acidity)” value is given as 2 (26-50, significant). Further, the “Activity Value Test A (ED50, inhibition of platelet aggregation)” value in assay [1] is recorded as 1 (>1.0).
In the case of `COC(=O)CCCCCC[C@H]1C(=O)C[C@@H](O)[C@@H]1/C=C/[C@@H](O)CCCCC1CCCC2CCCCC21` (stereo partly drawn) [TR-4172], in the assay on blood pressure, the “Activity Value Test D (ED50 mmHg, dose decreasing blood pressure by 50 mmHg)” value is 0 (>10.0). Also, in the assay with femoral blood flow, the “Activity Value Test C” value is reported as 0 (>10.0). Besides, in the assay on gastric secretion, the “Activity Value Test B (% decrease in acidity)” value is reported as 0 (<26). In assay [1], the “Activity Value Test A (ED50, inhibition of platelet aggregation)” value is 1 (>1.0).
As to `COC(=O)CCCCCC[C@H]1C(=O)C[C@@H](O)[C@@H]1/C=C/[C@H](O)CCCCC1CCC2CCC1C2` (stereo partly drawn) [TR-4116, methyl 7-{3R-hydroxy-5-oxo-2R-[3R-hydroxy-7-(bicyclo[3.2.1]oct-2-yl)-1E-heptenyl]cyclopent-1R-yl}heptanoate], the “Activity Value Test D (ED50 mmHg, dose decreasing blood pressure by 50 mmHg)” value in the assay on blood pressure is 0 (>10.0). Further, in the assay on femoral blood flow, the “Activity Value Test C” value was 0 (>10.0). In the assay on gastric secretion, the “Activity Value Test B (% decrease in acidity)” value is on record as 0 (<26). In assay [1], the “Activity Value Test A (ED50, inhibition of platelet aggregation)” value is 1 (>1.0).
`COC(=O)CCCCCC[C@H]1C(=O)C[C@@H](O)[C@@H]1/C=C/[C@H](O)C1CC2CCC2C1` (stereo partly drawn) [TR-4098, methyl 7-{3R-hydroxy-5-oxo-2R-[3R-hydroxy-3-(bicyclo[3.2.0]hept-3-yl)-1E-propenyl]cyclopent-1R-yl]heptanoate]: the “Activity Value Test D (ED50 mmHg, dose decreasing blood pressure by 50 mmHg)” value in the assay with blood pressure is 2 (0.11 - 1.0). Further, the “Activity Value Test C” value in the assay with femoral blood flow is recorded as 2 (0.11 - 1.0). For the same compound, in the assay on gastric secretion, the “Activity Value Test B (% decrease in acidity)” value was 4 (76-100).
